System: Aspergillus fumigatus (azole susceptible strain: NCPF2010)
Assay: Aspergillus fumigatus infection of human alveoli bilayers (transwells), azole susceptible strain
Type: cell-based
Conditions: for MIC50 / MIC90: Aspergillus fumigatus, NCPF2010, 24 h; for MIC50: read-out: MIC50, invasion into the lower chamber in human alveoli bilayers; for MIC90: read-out: MIC90, invasion into the lower chamber in human alveoli bilayers; for GM Levels in the Lower Chamber, OD value / GM Levels in the Lower Chamber, % inhibition vs.control / DFB50: Days taken to reach a fungal burden of 50% of control: Compound (Ia) 0.1 μg/mL upper chamber, posaconazole 0.01 μg/mL lower chamber, combination of both
Procedure: In vitro models of human alveoli, consisting of a bilayer of human alveolar epithelial cells and endothelial cells, were prepared as previously described (Hope et al., 2007). This system allows administration of a test compound to the upper (“air” space) and/or lower (“systemic” space) compartments. This flexibility has been exploited to explore the effects of combination treatment by dosing Compound (I) to the upper chamber and posaconazole or other anti-fungal agents to the lower chamber. Primary human pulmonary artery endothelial cells (HPAEC) were harvested and diluted to 10^6 cells/mL in EGM-2 media (Lonza, Basel, Switzerland). Transwells were inverted and the cell suspension (100 μL/well) applied to the base of each transwell. The inverted transwells were incubated at RT within a flow hood for 2 hr after which they were turned upright. EGM-2 media was added to the lower (700 μL/well) and upper (100 μL/well) compartments and the transwells were incubated for 48 hr (37° C., 5% CO2). The EGM-2 media in the lower compartment was then replaced with fresh EGM-2 media. A549 cells were harvested and diluted to 5×10^5 cells/mL in 10% EBM, then added to the upper compartment (100 μL/well) of all transwells and the plates incubated for 72 hr (37° C., 5% CO2). Conidia of itraconazole sensitive Aspergillus fumigatus s (NCPF2010) and itraconazole resistant (TR34-L98H) strains were cultured separately in Sabouraud dextrose agar for 3 days. A stock conidia suspension of either strain was prepared from a Sabouraud dextrose agar culture by washing with PBS-tween (10 mL; PBS containing 0.05% Tween-20, 100 U/mL Penicillin and 100 U/mL Streptomycin). The conidia count was assessed using a Neubauer haemocytometer and adjusted to 10^6 conidia/mL with PBS. A working stock of conidia was prepared in EBM (10^5 conidia/mL) immediately prior to use.
Test and reference compounds (or neat DMSO as the vehicle) were added to the appropriate wells of 24-well plates (3 μL/well containing 600 μL of 2% FBS EBM) for lower compartment treatment and to 96-well plates (1 μL/well containing 200 μL of 2% FBS EBM) for the treatment of the upper compartment, to provide a final DMSO concentration of 0.5%. The media in the upper compartment was aspirated and that containing the appropriate test and reference compounds, or vehicle, were added (100 μL/well). Transwells were then transferred into the 24-well plate containing the test and reference compounds or DMSO vehicle. After incubation for 1 hr (35° C., 5% CO2) the conidia suspension (10 μL/well) was added to the upper compartment of each transwell. Plates were then incubated for 24 hr (35° C., 5% CO2). Supernatants from each compartment (5 μL/compartment) were collected and stored (−20° C.). Media was replaced daily after collection of the supernatants and all wells were treated with test and reference compounds or with DMSO, as described above, for 3 days. Samples continued to be collected until fungal growth was visible by eye in all transwells. The levels of GM in the supernatant in lower compartment were then measured by ELISA (BioRad, CA, USA) as an index of Aspergillus fumigatus invasion.

Row | Compound | MIC50 | MIC90 | GM Levels in the Lower Chamber, OD value (Day 0, NCPF2010) | GM Levels in the Lower Chamber, % inhibition vs.control (Day 1, NCPF2010) | GM Levels in the Lower Chamber, OD value (Day 1, NCPF2010) | GM Levels in the Lower Chamber, % inhibition vs.control (Day 2, NCPF2010) | GM Levels in the Lower Chamber, OD value (Day 2, NCPF2010) | GM Levels in the Lower Chamber, % inhibition vs.control (Day 3, NCPF2010) | GM Levels in the Lower Chamber, OD value (Day 3, NCPF2010) | GM Levels in the Lower Chamber, % inhibition vs.control (Day 4, NCPF2010) | GM Levels in the Lower Chamber, OD value (Day 4, NCPF2010) | GM Levels in the Lower Chamber, % inhibition vs.control (Day 5, NCPF2010) | GM Levels in the Lower Chamber, OD value (Day 5, NCPF2010) | GM Levels in the Lower Chamber, % inhibition vs.control (Day 6, NCPF2010) | GM Levels in the Lower Chamber, OD value (Day 6, NCPF2010) | GM Levels in the Lower Chamber, % inhibition vs.control (Day 7, NCPF2010) | GM Levels in the Lower Chamber, OD value (Day 7, NCPF2010) | DFB50: Days taken to reach a fungal burden of 50% of control (NCPF2010) | maximum inhibition of GM levels in the bottom chamber (NCPF2010, administration to the apical chamber, 1 day post infection)
1 | Cc1cc(N2CCN(c3ccc(C(=O)N[C@H]4CCCC[C@@H]4O)cc3)CC2)ccc1OC[C@@H]1CO[C@@](Cn2cncn2)(c2ccc(F)cc2F)C1 [Compound (Ia), 4-(4-(4-(((3R,5R)-5-((1H-1,2,4-triazol-1-yl)methyl)-5-(2,4-difluorophenyl)tetrahydrofuran-3-yl)methoxy)-3-methylphenyl)piperazin-1-yl)-N-((1S,2S)-2-hydroxycyclohexyl) benzamide] | 0.154 µM | 0.185 µM | 0 OD | 66% | 0.24 OD | 1.5% | 1.71 OD | 8.6% | 1.67 OD | −1.6% | 1.68 OD | 0.2% | 1.63 OD | −1.8% | 1.57 OD | 7.1% | 1.54 OD | 1.04 days | exceeding 90%
2 | CC[C@@H]([C@H](C)O)n1ncn(-c2ccc(N3CCN(c4ccc(OC[C@@H]5CO[C@@](Cn6cncn6)(c6ccc(F)cc6F)C5)cc4)CC3)cc2)c1=O [Posaconazole, reference compound] | 0.155 µM | 0.212 µM | 0 OD | 89% | 0.074 OD | 1.5% | 1.71 OD | 7.1% | 1.70 OD | −3.0% | 1.70 OD | −3.6% | 1.69 OD | −3.0% | 1.59 OD | 2.5% | 1.62 OD | 1.16 days | –

Source: patent US10513511B2, “Aqueous suspension formulation comprising 4-(4-(4-(((3R,5R)-5-((1H-1,2,4-triazol-1-yl)methyl)-5-(2,4-difluoro-phenyl)tetrahydrofuran-3-yl)methoxy)-3-methylphenyl) or a pharmaceutically acceptable salt thereof” (PULMOCIDE LIMITED, priority 2015, dated 2019)
